The species named for data set [1] is Homo sapiens. Briefly: Inhibition of [3H]2-m-AzTax binding to P-gp in human SKVLB1 cell plasma membranes assessed as residual [3H]2-m-AzTax binding at 40 uM treated for 30 mins followed by UV irradiation measured after 10 mins by fluorographic method relative to control.
A short description of data set [2]: Cytotoxicity against human Hey/Tx100 cells after 72 to 120 hrs by sulforhodamine B assay. In kind it is functional, cell-based. In general terms: Sulforhodamine B stains cellular protein and so reports cell mass.
Data set [3] is described as follows: Cytotoxicity against human Hey/EpoB8 cells after 72 to 120 hrs by sulforhodamine B assay. In kind it is functional, cell-based.
A short description of data set [4]: Resistance index, ratio of IC50 for vinblastine-resistant human SKVLB1 cells to IC50 for human SKOV3 cells. The data set is classed as functional.
Data set [5] is described as follows: Cytotoxicity against human Hey/Ixab80 cells after 72 to 120 hrs by sulforhodamine B assay. In kind it is functional, cell-based.
Data set [6] has as its system SK-OV-3. Nature of the data set: Cytotoxicity against human SKOV3 cells after 72 to 120 hrs by sulforhodamine B assay. The data set is classed as functional, cell-based.
Data set [7] can be described thus: Resistance index, ratio of IC50 for human HEY/EpoB8 cells to IC50 for human HEY cells. The data set is classed as functional.
The subject of data set [8] is SK-OV-3. Nature of the data set: Cytotoxicity against human SKOV3 cells after 72 to 120 hrs in presence of verapamil by sulforhodamine B assay. In kind it is functional, cell-based.
Data set [9] concerns P-gp. Briefly: Resistance index, ratio of IC50 for substrate activity at P-gp in human SKVLB1 cells assessed as inhibition of cell growth to IC50 for human SKOV3 cells. In kind it is toxicity, cell-based. As to conditions: SKVLB1 cells (P-gp) versus SKOV3 cells, read-out: Ratio IC50.
The subject of another data set is HEY. Briefly: Cytotoxicity against human HEY cells after 72 to 120 hrs by sulforhodamine B assay. The data set is classed as functional, cell-based.
In data set [10] the target is Tubulin beta-4 chain (Gallus gallus) (UniProt P09652). Nature of the data set: Inhibition of [3H]2-m-AzTax binding to chicken erythrocyte beta-tubulin 4 at 20 uM treated for 30 mins followed by UV irradiation for 10 mins by fluorographic method relative to control.
Tubulin beta-4 chain (Gallus gallus), sequence (P09652 whole entry): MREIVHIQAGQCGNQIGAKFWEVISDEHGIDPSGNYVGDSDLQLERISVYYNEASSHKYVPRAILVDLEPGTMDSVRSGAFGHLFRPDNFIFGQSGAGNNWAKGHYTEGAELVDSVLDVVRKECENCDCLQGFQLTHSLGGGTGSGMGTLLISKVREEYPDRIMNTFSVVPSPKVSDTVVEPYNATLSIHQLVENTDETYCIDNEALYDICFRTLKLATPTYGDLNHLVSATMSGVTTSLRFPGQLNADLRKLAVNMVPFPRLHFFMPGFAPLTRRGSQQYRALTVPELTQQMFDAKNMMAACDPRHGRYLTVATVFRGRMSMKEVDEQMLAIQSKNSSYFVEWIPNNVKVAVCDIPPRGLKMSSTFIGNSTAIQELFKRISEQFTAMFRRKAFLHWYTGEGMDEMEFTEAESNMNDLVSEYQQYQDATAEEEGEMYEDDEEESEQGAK
Data set [11] can be described thus: Substrate activity at P-gp in human SKVLB1 cells assessed as inhibition of cell growth after 72 to 120 hrs in presence of verapamil by sulforhodamine B assay. In kind it is cell-based.
A further data set is filed under the species Bos taurus. Nature of the data set: Inhibition of [3H]2-m-AzTax binding to bovine brain beta-tubulin at 20 uM treated for 30 mins followed by UV irradiation for 10 mins by fluorographic method relative to control.
Data set [12] can be described thus: Cytotoxicity against vinblastine-resistant human SKVLB1 cells after 72 to 120 hrs by sulforhodamine B assay. In kind it is functional, cell-based.
A short description of data set [13]: Resistance index, ratio of IC50 for human HEY/Ixab80 cells to IC50 for human HEY cells. The data set is classed as functional.
In data set [14] the test system is P-gp. Nature of the data set: Resistance index, ratio of IC50 for substrate activity at P-gp in human SKVLB1 cells assessed as inhibition of cell growth in presence of verapamil to IC50 for human SKOV3 cells in presence of verapamil. The data set is classed as toxicity, cell-based. As to conditions: SKVLB1 cells (P-gp) versus SKOV3 cells, with verapamil (concentration not stated), read-out: Ratio IC50.

The species named for data set [15] is Homo sapiens. Briefly: Binding affinity to P-gp in human SKVLB1 cells assessed as increase in [3H]vinblastine accumulation at 40 uM after 1 hr by liquid scintillation counting method. The data set is classed as cell-based.
A short description of data set [16]: Ratio of fold resistance for substrate activity at P-gp in human SKVLB1 cells relative to sensitive human SKOV3 cells in absence of verapamil to fold resistance for substrate activity at P-gp in human SKVLB1 cells relative to sensitive human SKOV3 cells in presence of verapamil. The data set is classed as toxicity, cell-based.
A short description of data set [17]: Substrate activity at P-gp in human SKVLB1 cells assessed as inhibition of cell growth after 72 to 120 hrs by sulforhodamine B assay. The data set is classed as cell-based.
A short description of data set [18]: Resistance index, ratio of IC50 for human HEY/Tx100 cells to IC50 for human HEY cells. The data set is classed as functional.
The species entered for data set [19] is Homo sapiens. Nature of the data set: Inhibition of [3H]2-m-AzTax binding to P-gp in human SKVLB1 cell plasma membranes at 40 uM treated for 30 mins followed by UV irradiation for 10 mins by fluorographic method relative to control.
Data set [20] deals with SK-OV-3. Briefly: Effect on [3H]vinblastine accumulation in human SKOV3 cells at 40 uM after 1 hr by liquid scintillation counting method. The data set is classed as functional, cell-based.

The structures appear in SMILES notation. Calls of active or inactive are those of the source. No cut-off for these calls is given here. A value given as a limit tells only on which side of the number the result lay.

The IC50 is the concentration that inhibits the measured activity by half. For orientation: inhibition means the relative decrease from the control value, in per cent. As to `CC(=O)O[C@H]1C(=O)[C@@]2(C)[C@H]([C@H](OC(=O)c3ccccc3)[C@]3(O)C[C@H](OC(=O)[C@H](O)[C@@H](NC(=O)c4ccccc4)c4ccccc4)C(C)=C1C3(C)C)[C@]1(OC(C)=O)CO[C@@H]1C[C@@H]2O` [PACLITAXEL], the Activity in the data set filed under Homo sapiens [1] came to 18%. Further, the IC50 in [2] is 240 µM; in data set [3] it was 22.2 µM; in [5] it was 152 µM; in the data set with SK-OV-3 [6], 0.00239 to 0.00385 µM; in the data set on SK-OV-3 [8] it was 0.00399 µM; in the data set with HEY, 2.7 µM. The values for the IC50 in data set [11], in data set [12] and in data set [17] were 3.73 µM, 12.6 µM and 21.2 µM, respectively. The “Ratio IC50” value turned out to be 5416 in [4], 8 in data set [7], 56 in [13] and 89 in data set [18]. Also, the selectivity ratio in the data set with P-gp [9] was 5520; in the data set on P-gp [14] it was 936. The inhibition in data set [10] is 98%; in the data set listed under Bos taurus, 9%. Moreover, the result in the data set listed under Homo sapiens [15] was Active. For the same molecule, in data set [16], the Ratio was 5.9. Further, the inhibition entry in the data set filed under Homo sapiens [19] was “Active”.

On to `CC(=O)O[C@H]1C(=O)[C@@]2(C)[C@H]([C@H](OC(=O)c3cccc(N=[N+]=[N-])c3)[C@]3(O)C[C@H](OC(=O)[C@H](O)[C@@H](NC(=O)c4ccccc4)c4ccccc4)C(C)=C1C3(C)C)[C@]1(OC(C)=O)CO[C@@H]1C[C@@H]2O`, for which the Activity in the data set filed under Homo sapiens [1] came to 16%.

`CC(=O)O[C@@]12CO[C@@H]1C[C@H](O)[C@@]1(C)C(=O)[C@H](OC(=O)C3CC3)C3=C(C)[C@@H](OC(=O)[C@H](O)[C@H](C=C(C)C)NC(=O)OC(C)(C)C)C[C@@](O)([C@@H](OC(=O)c4ccccc4)[C@H]21)C3(C)C`: the Activity in the data set listed under Homo sapiens [1] is 11%. The IC50 in data set [2] was 2.3 µM; in data set [3] it was 8 µM; in data set [5] it was 1.6 µM; in the data set with SK-OV-3 [6] it was 0.00062 to 0.00146 µM; in the data set with SK-OV-3 [8], 0.00144 µM; with HEY, 0.58 µM. Further, the half-inhibitory concentration (IC50) was 0.0465 µM in data set [11], 0.0756 µM in data set [12] and 0.182 µM in data set [17]. In addition, the outcome with SK-OV-3 [20] was inactive. For the same molecule, the inhibition in data set [10] was 30%; in the data set listed under Bos taurus it was 38%; in the data set filed under Homo sapiens [19] it was 89%. Moreover, in the data set listed under Homo sapiens [15], the result was Active.

For the molecule `CC(=O)O[C@@]12CO[C@@H]1C[C@H](O)[C@@]1(C)C(=O)[C@H](O)C3=C(C)[C@@H](OC(=O)[C@H](O)[C@@H](NC(=O)OC(C)(C)C)c4ccccc4)C[C@@](O)([C@@H](OC(=O)c4ccccc4)[C@H]21)C3(C)C` [DOCETAXEL ANHYDROUS], the Activity in the data set listed under Homo sapiens [1] is 45%. Besides, the IC50 amounted to 41.4 µM in data set [2]; 8.4 µM in data set [3]; 16.2 µM in [5]; 0.00075 µM with SK-OV-3 [6]; 0.86 µM in the data set on HEY; 3.53 µM in data set [12]. Further, the “Ratio IC50” value is reported as 4704 in data set [4], 10 in [7], 19 in [13] and 48 in data set [18]. Further, the inhibition in [10] amounted to 98%; in the data set filed under Bos taurus, 33%; in the data set listed under Homo sapiens [19] it was 55%. The outcome in the data set filed under Homo sapiens [15] was Active.

As for `CC(=O)O[C@@]1(C2/C(C)=C(/O)C(=O)C3=C(C)[C@@H](OC(=O)[C@H](O)[C@H](C=C(C)C)NC(=O)OC(C)(C)C)C[C@@](O)([C@H]2OC(=O)c2cccc(Cl)c2)C3(C)C)CO[C@H]1CCO` (stereo partly drawn), the Activity in the data set listed under Homo sapiens [1] came to 14%. For the same molecule, the IC50 in [2] came to 28.8 µM; in data set [3] it was 13.9 µM; in data set [5], 13 µM; with SK-OV-3 [6], 0.00115 µM; with HEY it was 0.82 µM; in data set [12] it was 1.58 µM. Moreover, the outcome with SK-OV-3 [20] was inactive. Further, the “Ratio IC50” value came to 1376 in [4], 17 in data set [7], 16 in data set [13] and 35 in [18]. The inhibition is 6% in [10], 32% in the data set listed under Bos taurus and more than 80% in the data set filed under Homo sapiens [19]. For the same molecule, the result in the data set listed under Homo sapiens [15] was Active.

For the origin of these results see ChEMBL document CHEMBL4251679 (J Nat Prod, 2018).
